For this test, the system named is transformant cell line 503LCA500D (derived from CHO/DG44) producing chimeric anti-CCR4 antibody. In words: Fed-batch culture of antibody-producing cells with Q10-containing feed medium (Example 3). Format: cell-based, Chinese hamster. Particulars: for cumulative number of cells on the completion of culturing: Q10-free culture 3.94×10^7; for relative specific antibody production rate: Q10-free culture = 100%. As for the experimental part:
Lens culinaris agglutinin (hereinafter abbreviated as LCA) resistant cell line CHO-LCA, which is derived from Chinese hamster ovary cell line CHO/DG44, was prepared by the method described in WO 02/31140, and chimeric anti-CCR4 antibody expression vector pCANTEX 2160 (WO 01/64754) was transfected into this cell line. Then, amethotrexate (MTX)-resistant cell was selected for gene amplification to obtain transformant cell line 503LCA500D (FERM BP-8239) producing chimeric anti-CCR4 antibody. The following fed-batch culture was performed using this cell line 503LCA500D. 503LCA500D was deposited as FERM BP-8239 in International Patent Organism Depositary, National Institute of Advanced Industrial Science and Technology (AIST Tsukuba Central 6, 1-1-1 Higashi, Tsukuba, Ibaraki, Japan) as of Nov. 20, 2002.
The cells were inoculated in a 250-mL conical flask containing 50 mL of a serum-free medium. (EX-CELL 302 medium, manufactured by JRH Biosciences) to a cell density of 3×10^5 cells/mL, followed by spinner culture at 100 rpm at 37° C.
In Q10-added cultures, 0.5 mL or 1 mL of a health drink SANOMIT (manufactured by MSE Pharmazeutica GmbH) comprising Q10, water, glycerin, ethanol and lecithin was added to 20 mL of an animal-protein-material-free feed medium comprising amino acids (0.22 g/L L-alanine, 0.74 g/L L-arginine monohydrochloride, 0.22 g/LL-asparagine (anhydrous), 0.26 g/L L-aspartic acid, 0.8 g/L L-cystine dihydrochloride, 0.66 g/L L-glutamic acid, 7.34 g/L L-glutamine, 0.26 g/L glycine, 0.37 g/L L-histidine monohydrochloride dihydrate, 0.92 g/L L-isoleucine, 0.92 g/L L-leucine, 1.29 g/L L-lysine monohydrochloride, 0.26 g/L L-methionine, 0.58 g/L L-phenylalanine, 0.35 g/L L-proline, 0.37 g/L L-serine, 0.84 g/L L-threonine, 0.14 g/L L-tryptophan, 0.92 g/L L-tyrosine disodium dihydrate, and 0.83 g/LL-valine), vitamins (0.11 mg/L d-biotin, 0.035 g/L calcium D-pantothenate, 0.035 g/L choline chloride, 0.035 g/L folic acid, 0.063 g/L myo-inositol, 0.035 g/L niacin amide, 0.035 g/L pyridoxal hydrochloride, 0.0035 g/L riboflavin, 0.035 g/L thiamine hydrochloride, and 0.00011 mg/L cyanocobalamine), 0.0251 g/L ethanolamine, 0.314 g/L insulin, 8 g/L soybean hydrolysate HY-SOY (manufactured by Quest International), 0.05 g/L ethylenediaminetetraacetic acid ferric sodium salt (manufactured by Sigma-Aldrich Co.), and 2 mL cholesterol lipid concentrate (1,000×aqueous solution, manufactured by Invitrogen Corp.). The concentrations of Q10 in the feed media after addition of SANOMIT were 1,563 μmol/L and 3,125 μmol/L respectively. […]

Consider `COC1=C(OC)C(=O)C(C/C=C(\C)CC/C=C(\C)CC/C=C(\C)CC/C=C(\C)CC/C=C(\C)CC/C=C(\C)CC/C=C(\C)CC/C=C(\C)CC/C=C(\C)CCC=C(C)C)=C(C)C1=O` [Q10], for which the “cumulative number of cells on the completion of culturing” value (Q10-added culture 1, 121 to 393 μmol/L Q10 in the medium (SANOMIT in feed), fed-batch 13 days) is reported as 3.64×10^7 cells/mL×days and the “cumulative number of cells on the completion of culturing” value (Q10-added culture 2, 242 to 786 μmol/L Q10 in the medium (SANOMIT in feed), fed-batch 15 days) is listed as 2.00×10^7 cells/mL×days. Besides, the “relative specific antibody production rate” value reads like this: (Q10-added culture 1, 121 to 393 μmol/L Q10 in the medium, fed-batch 13 days) 128.8%; (Q10-added culture 2, 242 to 786 μmol/L Q10 in the medium, fed-batch 15 days) 149.1%.

The values above are taken from patent publication US20050175599A1, “Process for producing substance” (Kyowa Hakko Kogyo Co., Ltd., priority 2001, published 2005).
